This is an account of results in patent publication EP0456514A1, “2-Fluoroneplanocin A and its production” (ASAHI KASEI KOGYO KABUSHIKI KAISHA, priority 1990, dated 1991).

Converted amounts (≈) assume the structure as drawn.

Data set [1] concerns L5178Y cells. In words: Growth inhibition activity against L5178Y cells. The class given is cell-based. The note with it: for IC50: Mus musculus, L5178Y cells, incubated at 37 °C for 48 hours, cell number by Coulter counter. The method, then: (1) Growth inhibition activity against L5178Y cells:
A solution of each test compound is prepared by dissolving the compound in RRMI 1640 medium containing 10% bovine serum. A cell suspension of L5178Y cells, 1.1× 10⁴ cells/ml, each suspension having a volume of 1.8 ml, is added to each test tube. A solution ( 0.2 ml ) of the test compound hereinabove is added thereto and the medium is tightly sealed and incubated at 37 °C for 48 hours. After incubation, the numberof cells is measured using a Coulter counter and the growth ratio of the cells is determined.

The nature of data set [2]: Single administration toxicity in mice. The class given is in vivo. The note with it: 10 mg/kg, intra peritoneally in mice. The procedure:
2 - Fluoroneplanocin A can be applied for an anti-neoplastic agent. Amount of dosage can be determined by considering curative effect, route of administration, ages or body weight of patient, and in general 10 - 500 mg/man/day will be applied. Administration can be done by perorally or parenterally, for example intravenous injection or drop infusion or intramuscular administration.

In data set [3] the target is T1, Adenosine deaminase (Bos taurus, UniProt P56658).
T1 construct: Adenosine deaminase ( Calf inlestine, 400 U/ml glycerin, Boehringer 102091 ); purchased Boehringer 102091; host or cells: calf intestine (tissue-derived enzyme)
T1 sequence (P56658 1-363): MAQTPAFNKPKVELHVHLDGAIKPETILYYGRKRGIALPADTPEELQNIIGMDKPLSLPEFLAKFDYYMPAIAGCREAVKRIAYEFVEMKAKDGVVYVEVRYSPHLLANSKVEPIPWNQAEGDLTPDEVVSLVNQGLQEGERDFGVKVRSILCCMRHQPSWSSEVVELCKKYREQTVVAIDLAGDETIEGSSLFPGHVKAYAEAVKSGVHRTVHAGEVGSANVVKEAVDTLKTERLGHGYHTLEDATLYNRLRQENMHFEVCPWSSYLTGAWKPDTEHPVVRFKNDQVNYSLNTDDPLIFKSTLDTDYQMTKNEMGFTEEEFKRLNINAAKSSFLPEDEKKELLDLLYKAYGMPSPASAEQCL
Description: Resistance to adenosine deaminase (remaining sample measured by HPLC). The class given is in vitro ADME, Calf. The note with it: for Remaining ratio (%) 0 min. / remaining at 0.5 h, 500 µM: 0.5 mM test sample, adenosine deaminase, 0.05 M Tris-HCl buffer (pH 7.2), 25 °C; for remaining at 0.5 h, 500 µM: bovine, 30min., read-out: Remaining ratio (%) 30min. The procedure: (2) Resistance to adenosine deaminase:
A solution 0.5 mM of each test sample is prepared by dissolving the test sample in 0.05 M Tris-HCl buffer (pH 7.2). Adenosine deaminase ( Calf inlestine, 400 U/ml glycerin, Boehringer 102091 ) is diluled ten times with 0.05 M Tris-HCl buffer (pH 7.2) to prepare an adenosine deaminase solulion.
0.5 ml of each sample solulion is mixed with 10 µl of adenosine deaminase solution . The mixtures are allowed to stand in a water bath at 25 °C, and 4 µl samples thereof are pipetted off after 0 and 30 minutes. The remaining sample is measured by HPLC under the following conditions. HPLC: Column : Supersher RP-18-4 Eluent : 15% methanol Flow rate : 1.0 ml/min. Temperature : 50°C

For orientation: IC50 means the concentration that inhibits the measured activity by half. Lower therefore signals greater potency in that assay.

In data set [1], `Nc1nc(F)nc2c1ncn2[C@@H]1C=C(CO)[C@@H](O)[C@H]1O` [2-Fluoroneplanocin A, 2-fluoroneplanocin A] returned an IC50 of 0.06 µg/mL (≈ 0.213 µM). For the same compound, the “growth inhibitory activity against L5178Y cells as compared with that of known neplanocin A” value in data set [1] (relative to neplanocin A) is on record as “three times higher levels”. In addition, the death result in data set [2] is given as “No death is observed”. Besides, in data set [3], the “Remaining ratio (%) 0 min.” value was 100% and the remaining at 0.5 h, 500 µM was 100%. Besides, the “decomposition by adenosine deaminase” value in data set [3] (after 30 minutes of incubation) is reported as “not decomposed”.

In the case of `Nc1ncnc2c1ncn2[C@@H]1C=C(CO)[C@@H](O)[C@H]1O` [neplanocin A, Neplanocin A], the IC50 in data set [1] amounted to 0.2 µg/mL (≈ 0.76 µM). For the same compound, in data set [3], the “Remaining ratio (%) 0 min.” value worked out at 100% and the remaining at 0.5 h, 500 µM was found to be 0%.
